According to the NIST ThermoML archive (doi:10.1016/j.fluid.2019.06.022):
Values joined by “and” are separate entries in the source; they are usually repeats but may differ in a detail not shown here. Equal values may be shown once. Numbers after ± are expanded uncertainties.

Experiment: xn = mol fraction of the nth substance listed
Details: Liquid; for mass density: Bellows volumetry; for viscosity: Falling or rolling sphere viscometry
[1] = 294.8 K, 16200 kPa, x1 = 0.0787
[2] = 294.8 K, 27900 kPa, x1 = 0.0787
[3] = 294.8 K, 28000 kPa, x1 = 0.0787
[4] = 294.8 K, 28100 kPa, x1 = 0.0787
[5] = 294.8 K, 28200 kPa, x1 = 0.0787
[6] = 294.8 K, 40900 kPa, x1 = 0.0787
[7] = 294.8 K, 56200 kPa, x1 = 0.0787
[8] = 294.8 K, 56300 kPa, x1 = 0.0787
[9] = 297.5 K, 10800 kPa, x1 = 0.3073
[10] = 297.5 K, 10900 kPa, x1 = 0.3073
[11] = 297.5 K, 20700 kPa, x1 = 0.3073
[12] = 297.5 K, 21200 kPa, x1 = 0.3073
[13] = 297.5 K, 30500 kPa, x1 = 0.3073
[14] = 297.5 K, 30600 kPa, x1 = 0.3073
[15] = 297.5 K, 30700 kPa, x1 = 0.3073
[16] = 297.5 K, 48400 kPa, x1 = 0.3073
[17] = 297.5 K, 48500 kPa, x1 = 0.3073
[18] = 297.5 K, 69000 kPa, x1 = 0.3073
[19] = 297.5 K, 69100 kPa, x1 = 0.3073
[20] = 323.1 K, 10200 kPa, x1 = 0.3073
[21] = 323.1 K, 11000 kPa, x1 = 0.3073
[22] = 323.1 K, 21100 kPa, x1 = 0.3073
[23] = 323.1 K, 21200 kPa, x1 = 0.3073
[24] = 323.1 K, 35000 kPa, x1 = 0.3073
[25] = 323.1 K, 35100 kPa, x1 = 0.3073
[26] = 323.1 K, 35200 kPa, x1 = 0.3073
[27] = 323.1 K, 48500 kPa, x1 = 0.3073
[28] = 323.1 K, 68900 kPa, x1 = 0.3073
[29] = 325.2 K, 13900 kPa, x1 = 0.0787
[30] = 325.2 K, 14200 kPa, x1 = 0.0787
[31] = 325.2 K, 20600 kPa, x1 = 0.0787
[32] = 325.2 K, 26900 kPa, x1 = 0.0787
[33] = 325.2 K, 27100 kPa, x1 = 0.0787
[34] = 325.2 K, 40500 kPa, x1 = 0.0787
[35] = 325.2 K, 40700 kPa, x1 = 0.0787
[36] = 325.2 K, 51500 kPa, x1 = 0.0787
[37] = 325.2 K, 51600 kPa, x1 = 0.0787
[38] = 325.2 K, 51900 kPa, x1 = 0.0787
[39] = 325.2 K, 67700 kPa, x1 = 0.0787
[40] = 325.2 K, 67900 kPa, x1 = 0.0787
[41] = 325.2 K, 68000 kPa, x1 = 0.0787
[42] = 373.4 K, 17500 kPa, x1 = 0.3073
[43] = 373.4 K, 27500 kPa, x1 = 0.3073
[44] = 373.4 K, 27700 kPa, x1 = 0.3073
[45] = 373.4 K, 39100 kPa, x1 = 0.3073
[46] = 373.4 K, 39200 kPa, x1 = 0.3073
[47] = 373.4 K, 39300 kPa, x1 = 0.3073
[48] = 373.4 K, 39600 kPa, x1 = 0.3073
[49] = 373.4 K, 54700 kPa, x1 = 0.3073
[50] = 373.4 K, 54800 kPa, x1 = 0.3073
[51] = 373.4 K, 69000 kPa, x1 = 0.3073
[52] = 373.4 K, 69100 kPa, x1 = 0.3073

In the case of `C=CC` [propene] + Cc1ccccc1, the mass density [1] is reported as 839.2 ± 20 kg/m3, the viscosity [1] is reported as 0.656 ± 0.027 mPa·s and 0.638 ± 0.026 mPa·s and the mass density [2] is reported as 847.6 ± 20 kg/m3. For the same molecule, the viscosity [2] was 0.7 ± 0.029 mPa·s and 0.696 ± 0.028 mPa·s, the mass density [3] was 847.6 ± 20 kg/m3 and the viscosity [3] was 0.689 ± 0.028 mPa·s. For the same molecule, the mass density [4] was 847.6 ± 20 kg/m3, the viscosity [4] was 0.696 ± 0.028 mPa·s and the mass density [5] was 849.8 ± 20 kg/m3. For the same molecule, the viscosity [5] was 0.694 ± 0.028 mPa·s and 0.693 ± 0.028 mPa·s, the mass density [6] was 855.9 ± 20 kg/m3 and the viscosity [6] was 0.77 ± 0.031 mPa·s and 0.772 ± 0.032 mPa·s. The mass density [7] was 864.7 ± 21 kg/m3, the viscosity [7] was 0.856 ± 0.035 mPa·s and the mass density [8] was 864.7 ± 21 kg/m3. For the same molecule, the viscosity [8] was 0.854 ± 0.035 mPa·s, the mass density (297.5 K, 3700 kPa, x1 = 0.3073) was 753 ± 18 kg/m3 and the viscosity (297.5 K, 3700 kPa, x1 = 0.3073) was 0.356 ± 0.015 mPa·s and 0.355 ± 0.015 mPa·s. For the same molecule, the mass density [9] was 759 ± 18 kg/m3, the viscosity [9] was 0.371 ± 0.015 mPa·s and the mass density [10] was 759 ± 18 kg/m3. The viscosity [10] was 0.363 ± 0.015 mPa·s, the mass density [11] was 766.9 ± 18 kg/m3 and the viscosity [11] was 0.399 ± 0.016 mPa·s and 0.4 ± 0.016 mPa·s. For the same molecule, the mass density [12] was 767.5 ± 18 kg/m3, the viscosity [12] was 0.408 ± 0.017 mPa·s and 0.412 ± 0.017 mPa·s and the mass density [13] was 774.9 ± 19 kg/m3. It also gave a viscosity [13] of 0.439 ± 0.018 mPa·s, a mass density [14] of 774.9 ± 19 kg/m3 and a viscosity [14] of 0.44 ± 0.018 mPa·s. For the same molecule, the mass density [15] was 774.9 ± 19 kg/m3, the viscosity [15] was 0.431 ± 0.018 mPa·s and 0.433 ± 0.018 mPa·s and the mass density [16] was 787.8 ± 19 kg/m3. The viscosity [16] was 0.491 ± 0.02 mPa·s, the mass density [17] was 787.8 ± 19 kg/m3 and the viscosity [17] was 0.49 ± 0.02 mPa·s. The mass density [18] was 800.9 ± 19 kg/m3, the viscosity [18] was 0.555 ± 0.023 mPa·s and the mass density [19] was 800.9 ± 19 kg/m3. The viscosity [19] was 0.552 ± 0.023 mPa·s, the mass density (323.1 K, 3300 kPa, x1 = 0.3073) was 728.4 ± 18 kg/m3 and the viscosity (323.1 K, 3300 kPa, x1 = 0.3073) was 0.276 ± 0.011 mPa·s. It also gave a mass density (323.1 K, 3700 kPa, x1 = 0.3073) of 728.4 ± 18 kg/m3, a viscosity (323.1 K, 3700 kPa, x1 = 0.3073) of 0.277 ± 0.011 mPa·s and a mass density [20] of 736.3 ± 18 kg/m3. It also gave a viscosity [20] of 0.294 ± 0.012 mPa·s, a mass density [21] of 736.3 ± 18 kg/m3 and a viscosity [21] of 0.295 ± 0.012 mPa·s. The mass density [22] was 747.5 ± 18 kg/m3, the viscosity [22] was 0.319 ± 0.013 mPa·s and the mass density [23] was 747.5 ± 18 kg/m3. It also gave a viscosity [23] of 0.316 ± 0.013 mPa·s, a mass density [24] of 758.2 ± 18 kg/m3 and a viscosity [24] of 0.363 ± 0.015 mPa·s. For the same molecule, the mass density [25] was 758.2 ± 18 kg/m3, the viscosity [25] was 0.36 ± 0.015 mPa·s and 0.352 ± 0.014 mPa·s and the mass density [26] was 758.2 ± 18 kg/m3. For the same molecule, the viscosity [26] was 0.35 ± 0.014 mPa·s, the mass density [27] was 768.2 ± 18 kg/m3 and the viscosity [27] was 0.389 ± 0.016 mPa·s and 0.385 ± 0.016 mPa·s. For the same molecule, the mass density [28] was 782.5 ± 19 kg/m3, the viscosity [28] was 0.441 ± 0.018 mPa·s and 0.442 ± 0.018 mPa·s and the mass density (325.2 K, 7100 kPa, x1 = 0.0787) was 808.6 ± 19 kg/m3. The viscosity (325.2 K, 7100 kPa, x1 = 0.0787) was 0.423 ± 0.017 mPa·s, the mass density (325.2 K, 7400 kPa, x1 = 0.0787) was 808.6 ± 19 kg/m3 and the viscosity (325.2 K, 7400 kPa, x1 = 0.0787) was 0.421 ± 0.017 mPa·s. For the same molecule, the mass density [29] was 814.5 ± 20 kg/m3, the viscosity [29] was 0.435 ± 0.018 mPa·s and the mass density [30] was 814.2 ± 20 kg/m3. For the same molecule, the viscosity [30] was 0.44 ± 0.018 mPa·s, the mass density [31] was 819.6 ± 20 kg/m3 and the viscosity [31] was 0.468 ± 0.019 mPa·s and 0.467 ± 0.019 mPa·s. The mass density [32] was 824.5 ± 20 kg/m3, the viscosity [32] was 0.493 ± 0.02 mPa·s and the mass density [33] was 824.5 ± 20 kg/m3. For the same molecule, the viscosity [33] was 0.495 ± 0.02 mPa·s, the mass density [34] was 833.6 ± 20 kg/m3 and the viscosity [34] was 0.543 ± 0.022 mPa·s and 0.534 ± 0.022 mPa·s. For the same molecule, the mass density [35] was 833.6 ± 20 kg/m3, the viscosity [35] was 0.542 ± 0.022 mPa·s and 0.533 ± 0.022 mPa·s and the mass density [36] was 840.7 ± 20 kg/m3. For the same molecule, the viscosity [36] was 0.58 ± 0.024 mPa·s, the mass density [37] was 840.7 ± 20 kg/m3 and the viscosity [37] was 0.584 ± 0.024 mPa·s and 0.589 ± 0.024 mPa·s. For the same molecule, the mass density [38] was 840.7 ± 20 kg/m3, the viscosity [38] was 0.583 ± 0.024 mPa·s and the mass density [39] was 850.9 ± 20 kg/m3. The viscosity [39] was 0.644 ± 0.026 mPa·s, the mass density [40] was 850.9 ± 20 kg/m3 and the viscosity [40] was 0.645 ± 0.026 mPa·s. The mass density [41] was 850.9 ± 20 kg/m3, the viscosity [41] was 0.645 ± 0.026 mPa·s and 0.661 ± 0.027 mPa·s and the mass density (373.4 K, 3400 kPa, x1 = 0.3073) was 677.6 ± 16 kg/m3. For the same molecule, the viscosity (373.4 K, 3400 kPa, x1 = 0.3073) was 0.179 ± 0.007 mPa·s, the mass density (373.4 K, 3500 kPa, x1 = 0.3073) was 677.6 ± 16 kg/m3 and the viscosity (373.4 K, 3500 kPa, x1 = 0.3073) was 0.177 ± 0.007 mPa·s. It also gave a mass density (373.4 K, 6700 kPa, x1 = 0.3073) of 682.7 ± 16 kg/m3, a viscosity (373.4 K, 6700 kPa, x1 = 0.3073) of 0.185 ± 0.008 mPa·s and a mass density (373.4 K, 6800 kPa, x1 = 0.3073) of 682.7 ± 16 kg/m3. The viscosity (373.4 K, 6800 kPa, x1 = 0.3073) was 0.186 ± 0.008 mPa·s, the mass density [42] was 697.6 ± 17 kg/m3 and the viscosity [42] was 0.206 ± 0.008 mPa·s and 0.207 ± 0.008 mPa·s. The mass density [43] was 710.3 ± 17 kg/m3, the viscosity [43] was 0.225 ± 0.009 mPa·s and the mass density [44] was 710.2 ± 17 kg/m3. The viscosity [44] was 0.224 ± 0.009 mPa·s, the mass density [45] was 722.7 ± 17 kg/m3 and the viscosity [45] was 0.244 ± 0.01 mPa·s. The mass density [46] was 722.7 ± 17 kg/m3, the viscosity [46] was 0.243 ± 0.01 mPa·s and the mass density [47] was 722.7 ± 17 kg/m3. It also gave a viscosity [47] of 0.246 ± 0.01 mPa·s, a mass density [48] of 722.7 ± 17 kg/m3 and a viscosity [48] of 0.247 ± 0.01 mPa·s. It also gave a mass density [49] of 737.2 ± 18 kg/m3, a viscosity [49] of 0.27 ± 0.011 mPa·s and a mass density [50] of 737.2 ± 18 kg/m3. It also gave a viscosity [50] of 0.271 ± 0.011 mPa·s, a mass density [51] of 748.6 ± 18 kg/m3 and a viscosity [51] of 0.297 ± 0.012 mPa·s. For the same molecule, the mass density [52] was 748.6 ± 18 kg/m3, the viscosity [52] was 0.296 ± 0.012 mPa·s and the mass density (376.9 K, 2400 kPa, x1 = 0.0787) was 759.5 ± 18 kg/m3. It also gave a viscosity (376.9 K, 2400 kPa, x1 = 0.0787) of 0.252 ± 0.01 mPa·s.
